{
  "source": "the supplement of paper PMC11208160",
  "data": [
    {"assay": "recombinant UMI read abundance after kanamycin selection (control-corrected) (log10(CPM+1)); higher = more efficient recombination; extreme values may be limits of the assay; sequences stand for … in AGTGCAGAGAAAATCGGCCAGTTTTCTCTGCCTGCAGTCCGCATGCCGTGGGACCCCTTGGGTTCTAACCTGTTGCCTAGATTTATGCAGCGGACTGCCTTTCTCCCAAAGTGATAAACCGG…AGGTTGGTTTCACT; site = the 11-nt donor", "method_in_brief": "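For the IS621 bridge recombinase, a pooled Escherichia coli screen tested donor and donor-binding-loop pairs. Cells received the pair library together with a target plasmid encoding a fixed target and T7-inducible recombinase, then went onto IPTG (0.07 mM) plus kanamycin or unselected plates in duplicate. After PCR across the donor–target junction and sequencing, recombinant UMI counts were normalized to CPM, averaged, and scaled by control-derived factors. Each value is given as log10(CPM+1).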", "values": [
      {"sequence": "GCGCAGCCATGGACCGGTTTTCCCGGTAATCCGTATTTGGG (site GCGCAGCCTCC)", "recombinant UMI read abundance (log10)": 0.00363},
      {"sequence": "GCGCAGCCATGGACCGGTTTTCCCGGTAATCCGTATTTGGG (site GCGGAGCCTCC)", "recombinant UMI read abundance (log10)": 0.0138},
      {"sequence": "GCGCAGCCATGGACCGGTTTTCCCGGTAATCCGTATTTGGG (site GCGTAGCCTCC)", "recombinant UMI read abundance (log10)": 0.0296},
      {"sequence": "GCGCCCTCATGGACCGGTTTTCCCGGTAATCCGTATTTGAC (site GCGCCCTCTGT)", "recombinant UMI read abundance (log10)": 2.76},
      {"sequence": "GCGCCGGCATGGACCGGTTTTCCCGGTAATCCGTATTTGTG (site GCGCCGGCTCA)", "recombinant UMI read abundance (log10)": 0.015},
      {"sequence": "GCGCTCTCATGGACCGGTTTTCCCGGTAATCCGTATTTGCT (site GCGCTCTCTAG)", "recombinant UMI read abundance (log10)": 2.75},
      {"sequence": "GCGGAGTCATGGACCGGTTTTCCCGGTAATCCGTATTTGTT (site GCGGAGTCTAA)", "recombinant UMI read abundance (log10)": 3.15},
      {"sequence": "GCGTATGCATGGACCGGTTTTCCCGGTAATCCGTATTTGTA (site GCGTATGCTTA)", "recombinant UMI read abundance (log10)": 2.99},
      {"sequence": "GCGTGACCATGGACCGGTTTTCCCGGTAATCCGTATTTGCA (site GCGTGACCTTG)", "recombinant UMI read abundance (log10)": 0.00644},
      {"sequence": "GCGTGGTCATGGACCGGTTTTCCCGGTAATCCGTATTTGGC (site GCGTGGTCTGC)", "recombinant UMI read abundance (log10)": 2.06},
      {"sequence": "GCGTTGACATGGACCGGTTTTCCCGGTAATCCGTATTTGAG (site GCGTTGACTCT)", "recombinant UMI read abundance (log10)": 1.98},
      {"sequence": "GCGTTGACATGGACCGGTTTTCCCGGTAATCCGTATTTGCA (site GCGTTGACTTG)", "recombinant UMI read abundance (log10)": 2.59},
      {"sequence": "GCTAATGCATGGACCGGTTTTCCCGGTAATCCGTATTTGCC (site GCTAATGCTGG)", "recombinant UMI read abundance (log10)": 0},
      {"sequence": "GCTAATGCATGGACCGGTTTTCCCGGTAATCCGTATTTGCC (site GCTACTGCTGG)", "recombinant UMI read abundance (log10)": 0},
      {"sequence": "GCTAATGCATGGACCGGTTTTCCCGGTAATCCGTATTTGCC (site GCTAGTGCTGG)", "recombinant UMI read abundance (log10)": 0},
      {"sequence": "GCTAATGCATGGACCGGTTTTCCCGGTAATCCGTATTTGCC (site GCTATTGCTGG)", "recombinant UMI read abundance (log10)": 0},
      {"sequence": "GCTACCCCATGGACCGGTTTTCCCGGTAATCCGTATTTGTG (site GCTACCCCTCA)", "recombinant UMI read abundance (log10)": 0.013},
      {"sequence": "GCTACCGCATGGACCGGTTTTCCCGGTAATCCGTATTTGCA (site GCTACCGCTTG)", "recombinant UMI read abundance (log10)": 2.13},
      {"sequence": "GCTACCTCATGGACCGGTTTTCCCGGTAATCCGTATTTGCG (site GCTACCTCTCG)", "recombinant UMI read abundance (log10)": 1.22},
      {"sequence": "GCTACGGCATGGACCGGTTTTCCCGGTAATCCGTATTTGCC (site GCTACAGCTGG)", "recombinant UMI read abundance (log10)": 0},
      {"sequence": "GCTACGGCATGGACCGGTTTTCCCGGTAATCCGTATTTGCC (site GCTACCGCTGG)", "recombinant UMI read abundance (log10)": 0},
      {"sequence": "GCTACGGCATGGACCGGTTTTCCCGGTAATCCGTATTTGCC (site GCTACGGCTGG)", "recombinant UMI read abundance (log10)": 0.761},
      {"sequence": "GCTACGGCATGGACCGGTTTTCCCGGTAATCCGTATTTGCC (site GCTACTGCTGG)", "recombinant UMI read abundance (log10)": 0},
      {"sequence": "GCTACTACATGGACCGGTTTTCCCGGTAATCCGTATTTGCC (site GCTACTACTGG)", "recombinant UMI read abundance (log10)": 0},
      {"sequence": "GCTACTACATGGACCGGTTTTCCCGGTAATCCGTATTTGCC (site GCTACTCCTGG)", "recombinant UMI read abundance (log10)": 0},
      {"sequence": "GCTACTACATGGACCGGTTTTCCCGGTAATCCGTATTTGCC (site GCTACTGCTGG)", "recombinant UMI read abundance (log10)": 0},
      {"sequence": "GCTACTACATGGACCGGTTTTCCCGGTAATCCGTATTTGCC (site GCTACTTCTGG)", "recombinant UMI read abundance (log10)": 0},
      {"sequence": "GCTACTGCATGGACCGGTTTTCCCGGTAATCCGTATTTGAC (site GCTACTGCTGA)", "recombinant UMI read abundance (log10)": 0},
      {"sequence": "GCTACTGCATGGACCGGTTTTCCCGGTAATCCGTATTTGAC (site GCTACTGCTGC)", "recombinant UMI read abundance (log10)": 0},
      {"sequence": "GCTACTGCATGGACCGGTTTTCCCGGTAATCCGTATTTGAC (site GCTACTGCTGG)", "recombinant UMI read abundance (log10)": 0},
      {"sequence": "GCTACTGCATGGACCGGTTTTCCCGGTAATCCGTATTTGAC (site GCTACTGCTGT)", "recombinant UMI read abundance (log10)": 2.07},
      {"sequence": "GCTACTTCATGGACCGGTTTTCCCGGTAATCCGTATTTGCC (site GCTACTACTGG)", "recombinant UMI read abundance (log10)": 0},
      {"sequence": "GCTACTTCATGGACCGGTTTTCCCGGTAATCCGTATTTGCC (site GCTACTCCTGG)", "recombinant UMI read abundance (log10)": 0},
      {"sequence": "GCTACTTCATGGACCGGTTTTCCCGGTAATCCGTATTTGCC (site GCTACTGCTGG)", "recombinant UMI read abundance (log10)": 0},
      {"sequence": "GCTACTTCATGGACCGGTTTTCCCGGTAATCCGTATTTGCC (site GCTACTTCTGG)", "recombinant UMI read abundance (log10)": 1.34},
      {"sequence": "GCTAGAGCATGGACCGGTTTTCCCGGTAATCCGTATTTGTA (site GCTAGAGCTTA)", "recombinant UMI read abundance (log10)": 2.58},
      {"sequence": "GCTAGGGCATGGACCGGTTTTCCCGGTAATCCGTATTTGTT (site GCTAGGGCTAA)", "recombinant UMI read abundance (log10)": 1.53},
      {"sequence": "GCTCGCCCATGGACCGGTTTTCCCGGTAATCCGTATTTGAT (site GCTAGCCCTAT)", "recombinant UMI read abundance (log10)": 0.0115},
      {"sequence": "GCTCGCCCATGGACCGGTTTTCCCGGTAATCCGTATTTGAT (site GCTCGCCCTAT)", "recombinant UMI read abundance (log10)": 0.567},
      {"sequence": "GCTCGCCCATGGACCGGTTTTCCCGGTAATCCGTATTTGAT (site GCTGGCCCTAT)", "recombinant UMI read abundance (log10)": 0.019},
      {"sequence": "GCTCGCCCATGGACCGGTTTTCCCGGTAATCCGTATTTGAT (site GCTTGCCCTAT)", "recombinant UMI read abundance (log10)": 0.00792},
      {"sequence": "GCTCGTACATGGACCGGTTTTCCCGGTAATCCGTATTTGAT (site GCTCGTACTAT)", "recombinant UMI read abundance (log10)": 1.1},
      {"sequence": "GCTCTGCCATGGACCGGTTTTCCCGGTAATCCGTATTTGCG (site GCTCTGCCTCG)", "recombinant UMI read abundance (log10)": 0.0154},
      {"sequence": "GCTGCAGCATGGACCGGTTTTCCCGGTAATCCGTATTTGTC (site GCTGCAGCTGA)", "recombinant UMI read abundance (log10)": 2.59},
      {"sequence": "GCTGGAACATGGACCGGTTTTCCCGGTAATCCGTATTTGAC (site GCTGGAACTGT)", "recombinant UMI read abundance (log10)": 1.62},
      {"sequence": "GCTGTGTCATGGACCGGTTTTCCCGGTAATCCGTATTTGGA (site GCTGTGTCTTC)", "recombinant UMI read abundance (log10)": 1.46},
      {"sequence": "GCTTAGACATGGACCGGTTTTCCCGGTAATCCGTATTTGGC (site GCTTAGACTGC)", "recombinant UMI read abundance (log10)": 2.37},
      {"sequence": "GCTTCCCCATGGACCGGTTTTCCCGGTAATCCGTATTTGAT (site GCTTACCCTAT)", "recombinant UMI read abundance (log10)": 0.0108},
      {"sequence": "GCTTCCCCATGGACCGGTTTTCCCGGTAATCCGTATTTGAT (site GCTTCCCCTAT)", "recombinant UMI read abundance (log10)": 0.569},
      {"sequence": "GCTTCCCCATGGACCGGTTTTCCCGGTAATCCGTATTTGAT (site GCTTGCCCTAT)", "recombinant UMI read abundance (log10)": 0.00758},
      {"sequence": "GCTTCCCCATGGACCGGTTTTCCCGGTAATCCGTATTTGAT (site GCTTTCCCTAT)", "recombinant UMI read abundance (log10)": 0.028},
      {"sequence": "GCTTCCCCATGGACCGGTTTTCCCGGTAATCCGTATTTGCA (site GCTTCCCCTTG)", "recombinant UMI read abundance (log10)": 1.15},
      {"sequence": "GCTTCTGCATGGACCGGTTTTCCCGGTAATCCGTATTTGCC (site GCTACTGCTGG)", "recombinant UMI read abundance (log10)": 0.647},
      {"sequence": "GCTTCTGCATGGACCGGTTTTCCCGGTAATCCGTATTTGCC (site GCTCCTGCTGG)", "recombinant UMI read abundance (log10)": 1.82},
      {"sequence": "GCTTCTGCATGGACCGGTTTTCCCGGTAATCCGTATTTGCC (site GCTGCTGCTGG)", "recombinant UMI read abundance (log10)": 0},
      {"sequence": "GCTTCTGCATGGACCGGTTTTCCCGGTAATCCGTATTTGCC (site GCTTCTGCTGG)", "recombinant UMI read abundance (log10)": 1.86},
      {"sequence": "GCTTGCCCATGGACCGGTTTTCCCGGTAATCCGTATTTGGT (site GCTTGCCCTAA)", "recombinant UMI read abundance (log10)": 0.00835},
      {"sequence": "GCTTGCCCATGGACCGGTTTTCCCGGTAATCCGTATTTGGT (site GCTTGCCCTAC)", "recombinant UMI read abundance (log10)": 0.017},
      {"sequence": "GCTTGCCCATGGACCGGTTTTCCCGGTAATCCGTATTTGGT (site GCTTGCCCTAG)", "recombinant UMI read abundance (log10)": 0},
      {"sequence": "GCTTGCCCATGGACCGGTTTTCCCGGTAATCCGTATTTGGT (site GCTTGCCCTAT)", "recombinant UMI read abundance (log10)": 0},
      {"sequence": "GCTTTACCATGGACCGGTTTTCCCGGTAATCCGTATTTGTT (site GCTTTACCTAA)", "recombinant UMI read abundance (log10)": 0.0408},
      {"sequence": "GCTTTAGCATGGACCGGTTTTCCCGGTAATCCGTATTTGTT (site GCTTTAGCTAA)", "recombinant UMI read abundance (log10)": 0.00318},
      {"sequence": "GGAAATCCATGGACCGGTTTTCCCGGTAATCCGTATTTGAA (site GGAAATCCTTT)", "recombinant UMI read abundance (log10)": 0.994},
      {"sequence": "GGAAATCCATGGACCGGTTTTCCCGGTAATCCGTATTTGAA (site GGCAATCCTTT)", "recombinant UMI read abundance (log10)": 0},
      {"sequence": "GGAAATCCATGGACCGGTTTTCCCGGTAATCCGTATTTGAA (site GGGAATCCTTT)", "recombinant UMI read abundance (log10)": 0},
      {"sequence": "GGAAATCCATGGACCGGTTTTCCCGGTAATCCGTATTTGAA (site GGTAATCCTTT)", "recombinant UMI read abundance (log10)": 0},
      {"sequence": "GGAAATCCATGGACCGGTTTTCCCGGTAATCCGTATTTGGT (site GGAAATCCTAC)", "recombinant UMI read abundance (log10)": 0},
      {"sequence": "GGAACGGCATGGACCGGTTTTCCCGGTAATCCGTATTTGGA (site GGAACGGCTTC)", "recombinant UMI read abundance (log10)": 1.09}
    ]}
  ]
}
